Laboratory results as given in the NIST ThermoML archive (doi:10.1021/acs.jced.5b01102).
± gives the expanded uncertainty stated by the source.

Assay: refractive index (Na D-line) (dimensionless)
Details: 298.15 K; 101.33 kPa; Liquid; Standard Abbe refractometry

refractive index | SMILES
1.33251 ± 0.00031 | O [water]
1.35947 ± 0.00033 | CCO [ethanol]
1.32655 ± 0.00031 | CO [methanol]
